# From patent US20100152047A1, “Piperazine Compounds Whith a Herbicidal Action” (BASF SE, priority 2007, published 2010)
# Legend:
# Assay type in all cases: in vivo
# [1] = system: AMARE (Amaranthus retoflexus, redroot pigweed); experiment: greenhouse herbicidal test, post-emergence, AMARE; conditions: post-emergence method, application rate 0.5 kg/ha, scale from 0 to 100
# Source text: (§1) The culture containers used were plastic flowerpots containing loamy sand with approximately 3.0% of humus as the substrate. The seeds of the test plants were sown separately for each species.
# (§2) For the post-emergence treatment, the test plants were first grown to a height of 3 to 15 cm, depending on the plant habit, and only then treated with the active ingredients which had been suspended or emulsified in water. For this purpose, the test plants were either sown directly and grown in the same containers, or they were first grown separately as seedlings and transplanted into the test containers a few days prior to treatment.
# (§3) Depending on the species, the plants were kept at 10-25° C. or 20-35° C. The test period extended over 2 to 4 weeks. During this time, the plants were tended, and their response to the individual treatments was evaluated.
# (§4) Evaluation was carried out using a scale from 0 to 100. 100 means no emergence of the plants, or complete destruction of at least the aerial moieties, and 0 means no damage, or normal course of growth. A good herbicidal activity is given at values of at least 70 and a very good herbicidal activity is given at values of at least 85.
# (§5) The plants used in the greenhouse experiments belonged to the following species: […]
# [2] = system: SETVI (Setaria viridis, green foxtail); experiment: greenhouse herbicidal test, post-emergence, SETVI; conditions: post-emergence method, application rate 0.5 kg/ha, scale from 0 to 100
# Source text: as §1, §2, §3, §4, §5
# [3] = system: CHEAL (Chenopodium album, common lambsquarters); experiment: greenhouse herbicidal test, post-emergence, CHEAL; conditions: post-emergence method, application rate 0.5 kg/ha, scale from 0 to 100
# Source text: as §1, §2, §3, §4, §5
# [4] = system: LOLMU (Lolium multiflorum, Italian ryegrass); experiment: greenhouse herbicidal test, post-emergence, LOLMU; conditions: post-emergence method, application rate 0.5 kg/ha, scale from 0 to 100
# Source text: as §1, §2, §3, §4, §5
# [5] = system: GALAP (Galium aparine, catchweed bedstraw); experiment: greenhouse herbicidal test, post-emergence, GALAP; conditions: post-emergence method, application rate 0.5 kg/ha, scale from 0 to 100
# Source text: as §1, §2, §3, §4, §5
# [6] = system: APESV (Apera spica-venti, windgrass); experiment: greenhouse herbicidal test, post-emergence, APESV; conditions: post-emergence method, application rate 0.5 kg/ha, scale from 0 to 100
# Source text: as §1, §2, §3, §4, §5
# [7] = system: CHEAL (Chenopodium album, common lambsquarters); experiment: greenhouse herbicidal test, pre-emergence, CHEAL; conditions: pre-emergence method, application rate 0.5 kg/ha, scale from 0 to 100
# Source text: as §1
# (§6) For the pre-emergence treatment, the active ingredients, which had been suspended or emulsified in water, were applied directly after sowing by means of finely distributing nozzles. The containers were irrigated gently to promote germination and growth and subsequently covered with transparent plastic hoods until the plants had rooted. This cover caused uniform germination of the test plants, unless this has been impaired by the active ingredients.
# as §3, §4, §5
# [8] = system: SETVI (Setaria viridis, green foxtail); experiment: greenhouse herbicidal test, pre-emergence, SETVI; conditions: pre-emergence method, application rate 0.5 kg/ha, scale from 0 to 100
# Source text: as §1, §6, §3, §4, §5
Structure (SMILES),herbicidal activity against AMARE [1],herbicidal activity against SETVI [2],herbicidal activity against CHEAL [3],other results
Cc1cccc(C#N)c1C=C1C(=O)N(C)C(C)(Cc2ccccc2)C(=O)N1C (racemic) [Example 16],good to very good,good to very good,good to very good,
CN1C(=O)C(C)(Cc2ccccc2)NC(=O)C1=Cc1ccccc1C#N (racemic) [Example 39],good to very good,good to very good,good to very good,
CCN1C(=O)C(=Cc2ccccc2[N+](=O)[O-])N(C)C(=O)C1(C)Cc1ccccc1 (racemic) [Example 47],good to very good,good to very good,,
CN1C(=O)C(C)(Cc2ccccc2)N(C)C(=O)C1=Cc1ccccc1[N+](=O)[O-] (mixture of isomers) [Example 26],good to very good,good to very good,,
CN1C(=O)C(C)(Cc2ccccc2)NC(=O)C1=Cc1ccccc1[N+](=O)[O-] (racemic) [Example 44],good to very good,good to very good,,
CC(C)C1(Cc2ccccc2)C(=O)N(C)C(=Cc2ccccc2C#N)C(=O)N1C (racemic) [Example 24],good to very good,,,
CN1C(=O)C(C)(Cc2ccccc2)N(C)C(=O)C1=Cc1ccccc1C#N (racemic) [Example 7],good to very good,good to very good,good to very good,
CN1C(=O)C(C)(Cc2ccccc2)N(C)C(=O)C1=Cc1ccccc1Br (racemic) [Example 10],,good to very good,,herbicidal activity against LOLMU [4]: good (A good herbicidal activity is given at values of at least 70)
CN1C(=O)C(C)(Cc2ccc(Cl)cc2)N(C)C(=O)C1=Cc1ccccc1C#N (racemic) [Example 137],,,,herbicidal activity against GALAP [5]: good (A good herbicidal activity is given at values of at least 70)
Cc1cccc([N+](=O)[O-])c1C=C1C(=O)N(C)C(C)(Cc2ccccc2)C(=O)N1C (racemic) [Example 56],good to very good,good to very good,,
COc1cccc(C#N)c1C=C1C(=O)N(C)C(C)(Cc2ccccc2)C(=O)N1C (racemic) [Example 14],,good to very good,good to very good,
COc1cccc(Br)c1C=C1C(=O)N(C)C(C)(Cc2ccccc2)C(=O)N1C (racemic) [Example 43],good to very good,,,herbicidal activity against APESV [6]: good (A good herbicidal activity is given at values of at least 70)
CN1C(=O)C(C)(Cc2ccccc2)N(C)C(=O)C1=Cc1c(Cl)cccc1Br (racemic) [Example 11],good to very good,good to very good,good to very good,
CN1C(=O)C(C)(Cc2ccccc2)N(C)C(=O)C1=Cc1c(Cl)cccc1C#N (racemic) [Example 13],good to very good,good to very good,good to very good,
CN1C(=O)C(C)(Cc2ccccc2)N(C)C(=O)C1=Cc1c(F)cccc1C#N (racemic) [Example 12],good to very good,good to very good,good to very good,
CCc1cccc(C#N)c1C=C1C(=O)N(C)C(C)(Cc2ccccc2)C(=O)N1C (racemic) [Example 29],,good to very good,,
CN1C(=O)C(C)(Cc2ccc(F)cc2)N(C)C(=O)C1=Cc1ccccc1C#N (racemic) [Example 138],good to very good,good to very good,,
"CCC1(Cc2ccccc2)C(=O)N(C)C(=Cc2ccccc2C#N)C(=O)N1C (stereo not shown) [Example 3, 2-(5-Benzyl-5-ethyl-1,4-dimethyl-3,6-dioxopiperazin-2-ylidenemethyl)-benzonitrile]",good to very good,,good to very good,
CN1C(=O)C(CO)(Cc2ccccc2)N(C)C(=O)C1=Cc1ccccc1C#N (racemic) [Example 25],,good to very good,good to very good,herbicidal activity against CHEAL [7]: good (A good herbicidal activity is given at values of at least 70); herbicidal activity against SETVI [8]: good (A good herbicidal activity is given at values of at least 70)
CN1C(=O)C(C)(Cc2ccccc2)N(C)C(=O)C1=Cc1c(C#N)ccc(F)c1F (racemic) [Example 18],good to very good,good to very good,good to very good,
